How the values were obtained:
[1] = molecular target: recombinant human S1P1 receptor (Homo sapiens, UniProt P21453); test: GTPγS assay to determine EC50 values; assay type: biochemical; conditions: agonist-induced 35S-GTPγS binding, membranes of CHO cells expressing recombinant human S1P1 receptor
Procedure: GTPγS binding assays are performed in 96 well microtiter plates (Nunc, 442587) in a final volume of 200 μl, using membrane preparations of CHO cells expressing recombinant human S1P1 receptor. Assay conditions are 20 mM Hepes (Fluka, 54461), 100 mM NaCl (Fluka, 71378), 5 mM MgCl2 (Fluka, 63064), 0.1% BSA (Calbiochem, 126609), 1 μM GDP (Sigma, G-7127), 2.5% DMSO (Fluka, 41644), […] ^35S-GTPγS (Amersham Biosciences, SJ1320). The pH is 7.4. Test compounds are dissolved and diluted in 100% DMSO and pre-incubated at room temperature for 30 min in 150 μl of the above assay buffer, in the absence of ^35S-GTPγS. After addition of 50 μl of ^35S-GTPγS, the assay is incubated for 1 h at rt. The assay is terminated by transfer of the reaction mixture to a Multiscreen plate (Millipore, MAHFC1H60) using a cell harvester from Packard Biosciences, and the plates are washed with ice-cold 10 mM Na2HPO4/NaH2PO4 (70%/30%), dried, sealed at the bottom and, after addition of 25 μl MicroScint20 (Packard Biosciences, order#6013621), sealed on the top. Membrane-bound ^35S-GTPγS is measured with a TopCount from Packard Biosciences.
EC50 is the concentration of agonist inducing 50% of the maximal specific ^35S-GTPγS binding. Specific binding is determined by subtracting non-specific binding from maximal binding. Maximal binding is the amount of cpm bound to the Multiscreen plate in the presence of 10 μM of S1P. Non-specific binding is the amount of binding in the absence of an agonist in the assay.

circulating lymphocytes = test: Assessment of in vivo efficacy: circulating lymphocytes after oral administration; parameters: species or system rat; conditions: 6 h after oral administration of 10 mg/kg, normotensive male Wistar rats, compared to vehicle group
Procedure: The efficacy of the compounds of Formula (I) is assessed by measuring the circulating lymphocytes after oral administration of 3 to 30 mg/kg of a compound of Formula (I) to normotensive male Wistar rats. The animals are housed in climate-controlled conditions with a 12 h-light/dark cycle, and have free access to normal rat chow and drinking water. Blood is collected before and 3, 6 and 24 h after drug administration. Full blood is subjected to hematology using Advia Hematology system (Bayer Diagnostics, Zurich, Switzerland).
All data are presented as mean±SEM. Statistical analyses are performed by analysis of variance (ANOVA) using Statistica (StatSoft) and the Student-Newman-Keuls procedure for multiple comparisons. The null hypothesis is rejected when p<0.05.
Lymphocyte counts 6 h after oral administration have been measured for 6 exemplified compounds and are in the range of −77% to −61% with an average of −68%.

recombinant human S1P1 receptor, sequence (P21453 whole entry): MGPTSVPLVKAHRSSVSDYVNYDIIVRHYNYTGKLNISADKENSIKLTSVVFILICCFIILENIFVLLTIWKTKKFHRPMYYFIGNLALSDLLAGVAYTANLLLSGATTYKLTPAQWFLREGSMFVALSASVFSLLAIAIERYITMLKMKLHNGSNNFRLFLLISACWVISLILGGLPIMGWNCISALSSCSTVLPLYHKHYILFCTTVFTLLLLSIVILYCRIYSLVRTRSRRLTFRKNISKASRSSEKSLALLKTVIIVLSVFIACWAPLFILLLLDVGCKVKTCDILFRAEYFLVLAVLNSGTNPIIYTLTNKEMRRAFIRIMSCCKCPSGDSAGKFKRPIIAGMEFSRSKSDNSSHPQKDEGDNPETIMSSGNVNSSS

SMILES	EC50 [1] [nM]	Lymphocyte counts (circulating lymphocytes) [%]
CCc1cc(-c2noc(-c3cnc(OC(C)C)c(C)c3)n2)cc(C)c1OC[C@@H](O)CNC(=O)CO [Example 88]	0.1	
CCc1cc(-c2noc(-c3cnc(CC(C)C)c(C)c3)n2)cc(C)c1OCC(O)CNC(=O)CO (racemic) [Example 8, N—((RS)-3-{2-Ethyl-4-[5-(6-isobutyl-5-methyl-pyridin-3-yl)-[1,2,4]oxadiazol-3-yl]-6-methyl-phenoxy}-2-hydroxy-propyl)-2-hydroxy-acetamide]		−61
Cc1cc(-c2noc(-c3cnc(CC(C)C)c(CC(C)C)c3)n2)cc(C)c1OCC(O)CO (racemic) [Example 12, (RS)-3-{4-[5-(5,6-Diisobutyl-pyridin-3-yl)-[1,2,4]oxadiazol-3-yl]-2,6-dimethyl-phenoxy}-propane-1,2-diol]		−61
Cc1cc(-c2noc(-c3cnc(OC(C)C)c(Cl)c3)n2)cc(C)c1OCC(O)CO (racemic) [Example 1, (RS)-3-{4-[5-(5-chloro-6-isopropoxy-pyridin-3-yl)-[1,2,4]oxadiazol-3-yl]-2,6-dimethyl-phenoxy}-propane-1,2-diol]	0.6	
CCc1cc(-c2noc(-c3cnc(OC(C)C)c(C)c3)n2)cc(C)c1CCC(=O)NCCO [Example 89, 3-{2-Ethyl-4-[5-(6-isopropoxy-5-methyl-pyridin-3-yl)-[1,2,4]oxadiazol-3-yl]-6-methyl-phenyl}-N-(2-hydroxy-ethyl)-propionamide]	3.5	
Cc1cc(-c2noc(-c3cnc(OC(C)C)c(Cl)c3)n2)cc(C)c1OCC(O)CNC(=O)CO (racemic) [Example 3, N—((RS)-3-{4-[5-(5-chloro-6-isopropoxy-pyridin-3-yl)-[1,2,4]oxadiazol-3-yl]-2,6-dimethyl-phenoxy}-2-hydroxy-propyl)-2-hydroxy-acetamide]		−71
CCc1cc(-c2nc(-c3cnc(OC(C)C)c(C)c3)no2)cc(C)c1OC[C@@H](O)CO [Example 92]	5.1	

Continued, in another order:

EC50 [1] [nM]	SMILES	Lymphocyte counts (circulating lymphocytes) [%]
4	COc1cc(-c2noc(-c3cnc(CC(C)C)c(C)c3)n2)cc(Cl)c1OCC(O)CNC(=O)CO (stereo not shown) [Example 43]	
2.7	Cc1cc(-c2nc(-c3cc(C)c(OCC(O)CNC(=O)CO)c(C)c3)no2)cnc1CC(C)C (racemic) [Example 5, 2-Hydroxy-N—((RS)-2-hydroxy-3-{4-[5-(6-isobutyl-5-methyl-pyridin-3-yl)-[1,2,4]oxadiazol-3-yl]-2,6-dimethyl-phenoxy}-propyl)-acetamide]	
0.6	Cc1cc(-c2nc(-c3cc(C)c(OCC(O)CNC(=O)CO)c(Cl)c3)no2)cnc1CC(C)C (stereo not shown) [Example 42]	

— patent US8288554B2, “Pyridin-3-yl derivatives as immunomodulating agents” (Actelion Pharmaceuticals Ltd., priority 2006, dated 2012)
